Experimental data: paper PMC9673917 (ACS Infectious Diseases, 2022)
pIC50: −log10 of the molar value.

Experiments:
spike protein = settings: Calu-3 cell line; cited from earlier work
RBD-Fc/ACE2-Strep = RBD-Fc/ACE2-Strep (Severe acute respiratory syndrome coronavirus 2, UniProt P0DTC2); experiment: biochemical; type: binding, SARS-CoV-2 S protein; human ACE2
[1] = test system: Calu-3 and HEK293-ACE2 cells; settings: Calu-3 and HEK293-ACE2 cell lines
ACE2/RBD = settings: read-out: IC50 as ACE2/RBD binding inhibitor, AlphaLISA; ref 16 (Hanson et al.); cited from earlier work
ACE2/RBD interaction [2] = settings: up to 100 μM; cell-free ELISA-type assays; RBD residues 319–541; ref 14 (Bojadzic et al.); cited from earlier work
ACE2/RBD interaction [3] = settings: 150 μM; RBD residues 319–541; ref 11 (Ao et al.); cited from earlier work

| Compound | neutralization efficacy (spike protein) | cytotoxicity over active concentration ranges [1] | other results |
| --- | --- | --- | --- |
| REGN10987: monoclonal antibody that targets the spike protein | potent neutralization efficacy | – | – |
| REGN10933: monoclonal antibody that targets the spike protein | potent neutralization efficacy | – | – |
| CCCCCCCC/C=C\CCCCCCCC(=O)O [oleic acid] | – | low to moderate cytotoxicity | pIC50 (RBD-Fc/ACE2-Strep): 4.45 |
| O=C(O[C@@H]1O[C@@H]2COC(=O)c3cc(O)c(O)c(O)c3-c3c(cc(O)c(O)c3O)C(=O)O[C@H]([C@H]1O)[C@@H]2O)c1cc(O)c(O)c(O)c1 [corilagin] | – | – | pIC50 (ACE2/RBD): 5.26 |
| Cc1ccc(C(=O)Nc2ccc(S(=O)(=O)O)c3cc(S(=O)(=O)O)cc(S(=O)(=O)O)c23)cc1NC(=O)c1cccc(NC(=O)Nc2cccc(C(=O)Nc3cc(C(=O)Nc4ccc(S(=O)(=O)O)c5cc(S(=O)(=O)O)cc(S(=O)(=O)O)c45)ccc3C)c2)c1 [suramin] | – | low to moderate cytotoxicity | inhibition of the ACE2/RBD interaction (ACE2/RBD interaction [2]): did not inhibit; inhibition of ACE2/RBD interaction (ACE2/RBD interaction [3]): around 50% |
